Test results published in US20250282820A1, “PEPTIDE COMPLEX HAVING TRKB BINDING ACTIVITY” (PEPTIDREAM INC, priority 2022, published 2025).
*1 amine or outer side, *2 acyl side, *3 side chain or, on linkers, in order; H or OH if unused. Where a SMILES comes first, the peptide text is derived from it. Bridges are numbered along the chain shown (N, C = ends). Roman numbers before positions name the chains, in order. Where no end group is shown, it is not given here. [ ]: non-standard residue; d: D form. CO(CH2)2(OCH2CH2)17CO = O=C(CCOCCOCCOCCOCCOCCOCCOCCOCCOCCOCCOCCOCCOCCOCCOCCOCCOCCC(=O)[*:2])[*:1]; X1 = O=C(OCCOCCOCCOCCOCCOCCOCCOCCOCCOCCOCCOCCOC(=O)[*:2])[*:1]; 3Pal = N[C@@H](Cc1cccnc1)C(=O)O; X2 = O=C(CCOCCC(=O)[*:2])[*:1]; PEG2 = NCCOCCOCCC(=O)O

Key:
TrkB = TrkB (Homo sapiens, UniProt Q16620); assay: PathHunter eXpress TrkB Functional Assay (phosphorylation of TrkB); format: cell-based; conditions: maximum signal induced by BDNF = 100%; stimulation for 3 hours
Procedure, shortened: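 PathHunter TrkB cells, cultured 48 h, were stimulated 3 h with peptide or BDNF, then detection reagent added for 60 min at room temperature; luminescence read. Activity (%) scaled from unstimulated (0%) to maximal BDNF signal (100%); peptides tested over 0.006104-100 nM, 0.032-100 nM or 0.01-10 nM ranges.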

[1] = target: T1, TrkB (CellSensor TrkB-NFAT-bla CHO-K1 Cell) (Homo sapiens, UniProt Q16620); assay: NFAT transcriptional reporter assay for TrkB agonist activity; format: cell-based; conditions: class = peptide concentration giving 50% or more activity; BDNF maximum signal = 100%, no stimulation = 0%; 5 hours culture
T1 construct: host or cells: CHO-K1 (CellSensor TrkB-NFAT-bla CHO-K1)
Procedure, shortened: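 CHO-K1 TrkB-NFAT-bla cells, 12,500 per well, treated overnight-seeded with peptide or BDNF for 5 h, then CCF4-AM substrate 2 h in the dark; 460/535 nm emission ratio. Activity scaled to maximal BDNF signal (100%) and unstimulated (0%); grades A/B/C mean ≥50% activity at 1, 10 or 100 nM.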

[2] = target: T1, TrkB (CellSensor TrkB-NFAT-bla CHO-K1 Cell); assay: pERK1/2 AlphaLISA assay (phosphorylation of ERK) for TrkB agonist activity; format: cell-based; conditions: class = peptide concentration giving 50% or more activity; BDNF maximum signal = 100%, no stimulation = 0%; 15 minutes of stimulation
Procedure, shortened: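 TrkB-NFAT-bla CHO-K1 cells were starved 4 h in 0.1% BSA medium and then stimulated 15 min with peptide or BDNF; p-ERK1/2 (Thr202/Tyr204) in the lysate was read by AlphaLISA SureFire. Activity % was scaled to the BDNF maximum (100%) and no stimulation (0%); A = ≥50% at 1 nM, B = ≥50% at 10 nM; curves were 8 points, 4-fold dilutions from 100 nM.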

[3] = target: Recombinant Human TrkB Fc Chimera Protein (R&D Systems) (human) (UniProt Q16620); assay: SPR (Biacore T200), TrkB-Fc captured on anti-human IgG (Fc) antibody, peptide complex as analyte, single cycle kinetics
[4] = target: TrkB of the cells of the PathHunter eXpress TrkB Functional Assay kit (DiscoverX) (UniProt Q16620 32-822, limits assumed); assay: cell-based or functional assay
Chain of TrkB of the cells of the PathHunter eXpress TrkB Functional Assay kit (DiscoverX) (Q16620 32-822 limits assumed): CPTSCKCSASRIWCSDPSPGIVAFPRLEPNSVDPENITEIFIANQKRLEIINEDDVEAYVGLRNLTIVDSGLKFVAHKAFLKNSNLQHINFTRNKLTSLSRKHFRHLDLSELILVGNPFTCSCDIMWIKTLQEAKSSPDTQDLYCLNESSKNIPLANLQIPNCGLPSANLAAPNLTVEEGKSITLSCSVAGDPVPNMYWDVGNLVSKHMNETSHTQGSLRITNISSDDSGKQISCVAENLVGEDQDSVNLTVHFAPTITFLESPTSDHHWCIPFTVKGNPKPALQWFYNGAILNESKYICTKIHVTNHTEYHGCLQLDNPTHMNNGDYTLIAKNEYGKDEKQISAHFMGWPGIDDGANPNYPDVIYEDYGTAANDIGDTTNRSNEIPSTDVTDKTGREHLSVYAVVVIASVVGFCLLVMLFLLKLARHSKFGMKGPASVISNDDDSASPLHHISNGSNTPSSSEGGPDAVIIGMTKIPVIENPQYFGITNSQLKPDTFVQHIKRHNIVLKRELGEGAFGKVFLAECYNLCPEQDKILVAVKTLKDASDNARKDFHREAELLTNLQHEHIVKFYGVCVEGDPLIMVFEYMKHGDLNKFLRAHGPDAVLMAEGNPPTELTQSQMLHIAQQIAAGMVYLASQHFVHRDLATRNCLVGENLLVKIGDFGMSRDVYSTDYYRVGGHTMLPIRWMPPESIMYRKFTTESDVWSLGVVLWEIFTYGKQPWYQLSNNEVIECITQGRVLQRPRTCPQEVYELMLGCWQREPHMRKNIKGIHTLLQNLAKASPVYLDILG

Chain of TrkB (Q16620 32-822): as the sequence (Q16620 32-822 limits assumed) above
T1 sequence (Q16620 32-822): as the sequence (Q16620 32-822 limits assumed) above
Chain of Recombinant Human TrkB Fc Chimera Protein (R&D Systems) (human) (Q16620 32-430, change not shown): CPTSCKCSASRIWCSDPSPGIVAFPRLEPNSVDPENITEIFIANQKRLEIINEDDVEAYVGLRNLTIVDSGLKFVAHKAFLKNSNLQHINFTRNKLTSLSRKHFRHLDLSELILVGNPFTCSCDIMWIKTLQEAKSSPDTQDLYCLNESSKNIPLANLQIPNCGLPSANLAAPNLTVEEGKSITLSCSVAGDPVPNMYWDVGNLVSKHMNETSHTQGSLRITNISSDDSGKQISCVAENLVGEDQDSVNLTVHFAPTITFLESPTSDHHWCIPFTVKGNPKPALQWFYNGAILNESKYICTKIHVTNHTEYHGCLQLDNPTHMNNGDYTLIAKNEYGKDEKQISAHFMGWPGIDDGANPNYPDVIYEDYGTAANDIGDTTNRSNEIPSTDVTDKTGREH

| koff [3] [s⁻¹] | PathHunter EC50 [4] [nM] | PathHunter Emax (BDNF maximum = 100%) [4] [%] | Molecule | Emax (TrkB) [%] | NFAT Assay Results [1] | pERK (aLISA) Assay Results [2] |
| --- | --- | --- | --- | --- | --- | --- |
| – | – | – | CC(C)[C@@H]1NC(=O)[C@H](Cc2cccnc2)NC(=O)[C@H](CCC(=O)O)NC(=O)[C@H](CO)NC(=O)[C@H](Cc2ccc(O)cc2)NC(=O)[C@H]([C@@H](C)O)NC(=O)[C@@H]2CCCN2C(=O)[C@H](Cc2c[nH]c3ccccc23)NC(=O)[C@H](Cc2cccnc2)NC(=O)[C@H](Cc2ccc(O)cc2)NC(=O)[C@@H]2CCCN2C(=O)[C@H](CO)NC(=O)[C@H](Cc2ccccc2)NC(=O)CSC[C@@H](C(=O)NCC(=O)N[C@@H](CCCCNC(=O)CCOCCOCCOCCOCCOCCOCCOCCOCCOCCOCCOCCOCCOCCOCCOCCOCCOCCC(=O)NCCCC[C@H](NC(=O)CNC(=O)[C@@H]2CSCC(=O)N[C@@H](Cc3ccccc3)C(=O)N[C@@H](CO)C(=O)N3CCC[C@H]3C(=O)N[C@@H](Cc3ccc(O)cc3)C(=O)N[C@@H](Cc3cccnc3)C(=O)N[C@@H](Cc3c[nH]c4ccccc34)C(=O)N3CCC[C@H]3C(=O)N[C@@H]([C@@H](C)O)C(=O)N[C@@H](Cc3ccc(O)cc3)C(=O)N[C@@H](CO)C(=O)N[C@@H](CCC(=O)O)C(=O)N[C@@H](Cc3cccnc3)C(=O)N[C@@H](C(C)C)C(=O)N[C@@H](CCC(=O)O)C(=O)N2)C(N)=O)C(N)=O)NC(=O)[C@H](CCC(=O)O)NC1=O [compound 49] (I: {CH2CO}-FSPY[3Pal]WPTYSE[3Pal]VECGK-NH2 / II: {CH2CO}-FSPY[3Pal]WPTYSE[3Pal]VECGK-NH2; linker I:17-II:17 via CO(CH2)2(OCH2CH2)17CO; thioether I:N-I:15, II:N-II:15) | 107 | A (The peptide with 50% or more activity when 1 nM of the peptide was added was evaluated as A) | A (The peptide with 50% or more activity when 1 nM of the peptide was added was evaluated as A) |
| – | – | – | CC(C)[C@@H]1NC(=O)[C@H](Cc2cccnc2)NC(=O)[C@H](CCC(=O)O)NC(=O)[C@H](CO)NC(=O)[C@H](Cc2ccc(O)cc2)NC(=O)[C@H]([C@@H](C)O)NC(=O)[C@@H]2CCCN2C(=O)[C@H](Cc2c[nH]c3ccccc23)NC(=O)[C@H](Cc2cccnc2)NC(=O)[C@H](Cc2ccc(O)cc2)NC(=O)[C@@H]2CCCN2C(=O)[C@H](CO)NC(=O)[C@H](Cc2ccccc2)NC(=O)CSC[C@@H](C(=O)NCC(=O)NCCOCCOCCC(=O)N[C@@H](CCCCNC(=O)CCOCCC(=O)NCCCC[C@H](NC(=O)CCOCCOCCNC(=O)CNC(=O)[C@@H]2CSCC(=O)N[C@@H](Cc3ccccc3)C(=O)N[C@@H](CO)C(=O)N3CCC[C@H]3C(=O)N[C@@H](Cc3ccc(O)cc3)C(=O)N[C@@H](Cc3cccnc3)C(=O)N[C@@H](Cc3c[nH]c4ccccc34)C(=O)N3CCC[C@H]3C(=O)N[C@@H]([C@@H](C)O)C(=O)N[C@@H](Cc3ccc(O)cc3)C(=O)N[C@@H](CO)C(=O)N[C@@H](CCC(=O)O)C(=O)N[C@@H](Cc3cccnc3)C(=O)N[C@@H](C(C)C)C(=O)N[C@@H](CCC(=O)O)C(=O)N2)C(N)=O)C(N)=O)NC(=O)[C@H](CCC(=O)O)NC1=O [compound 51] (I: {CH2CO}-FSPY[3Pal]WPTYSE[3Pal]VECG[PEG2]K-NH2 / II: {CH2CO}-FSPY[3Pal]WPTYSE[3Pal]VECG[PEG2]K-NH2; linker I:18-II:18 via X2; thioether I:N-I:15, II:N-II:15) | 106 | A (The peptide with 50% or more activity when 1 nM of the peptide was added was evaluated as A) | A (The peptide with 50% or more activity when 1 nM of the peptide was added was evaluated as A) |
| – | – | – | CC(C)[C@@H]1NC(=O)[C@H](Cc2cccnc2)NC(=O)[C@H](CCC(=O)O)NC(=O)[C@H](CO)NC(=O)[C@H](Cc2ccc(O)cc2)NC(=O)[C@H]([C@@H](C)O)NC(=O)[C@@H]2CCCN2C(=O)[C@H](Cc2c[nH]c3ccccc23)NC(=O)[C@H](Cc2cccnc2)NC(=O)[C@H](Cc2ccc(O)cc2)NC(=O)[C@@H]2CCCN2C(=O)[C@H](CO)NC(=O)[C@H](Cc2ccccc2)NC(=O)CSC[C@@H](C(=O)NCC(=O)N[C@@H](CCCCNC(=O)OCCOCCOCCOCCOCCOCCOCCOCCOCCOCCOCCOCCOC(=O)NCCCC[C@H](NC(=O)CNC(=O)[C@@H]2CSCC(=O)N[C@@H](Cc3ccccc3)C(=O)N[C@@H](CO)C(=O)N3CCC[C@H]3C(=O)N[C@@H](Cc3ccc(O)cc3)C(=O)N[C@@H](Cc3cccnc3)C(=O)N[C@@H](Cc3c[nH]c4ccccc34)C(=O)N3CCC[C@H]3C(=O)N[C@@H]([C@@H](C)O)C(=O)N[C@@H](Cc3ccc(O)cc3)C(=O)N[C@@H](CO)C(=O)N[C@@H](CCC(=O)O)C(=O)N[C@@H](Cc3cccnc3)C(=O)N[C@@H](C(C)C)C(=O)N[C@@H](CCC(=O)O)C(=O)N2)C(N)=O)C(N)=O)NC(=O)[C@H](CCC(=O)O)NC1=O [compound 55] (I: {CH2CO}-FSPY[3Pal]WPTYSE[3Pal]VECGK-NH2 / II: {CH2CO}-FSPY[3Pal]WPTYSE[3Pal]VECGK-NH2; linker I:17-II:17 via X1; thioether I:N-I:15, II:N-II:15) | 104 | A (The peptide with 50% or more activity when 1 nM of the peptide was added was evaluated as A) | A (The peptide with 50% or more activity when 1 nM of the peptide was added was evaluated as A) |
| – | – | – | CC(C)[C@@H]1NC(=O)[C@H](Cc2cccnc2)NC(=O)[C@H](CCC(=O)O)NC(=O)[C@H](CO)NC(=O)[C@H](Cc2ccc(O)cc2)NC(=O)[C@H]([C@@H](C)O)NC(=O)[C@@H]2CCCN2C(=O)[C@H](Cc2c[nH]c3ccccc23)NC(=O)[C@H](Cc2cccnc2)NC(=O)[C@H](Cc2ccc(O)cc2)NC(=O)[C@@H]2CCCN2C(=O)[C@H](CCC(=O)O)NC(=O)[C@H](Cc2ccccc2)NC(=O)CSC[C@@H](C(=O)NCC(=O)N[C@@H](CCCCNC(=O)OCCOCCOCCOCCOCCOCCOCCOCCOCCOCCOCCOCCOC(=O)NCCCC[C@H](NC(=O)CNC(=O)[C@@H]2CSCC(=O)N[C@@H](Cc3ccccc3)C(=O)N[C@@H](CCC(=O)O)C(=O)N3CCC[C@H]3C(=O)N[C@@H](Cc3ccc(O)cc3)C(=O)N[C@@H](Cc3cccnc3)C(=O)N[C@@H](Cc3c[nH]c4ccccc34)C(=O)N3CCC[C@H]3C(=O)N[C@@H]([C@@H](C)O)C(=O)N[C@@H](Cc3ccc(O)cc3)C(=O)N[C@@H](CO)C(=O)N[C@@H](CCC(=O)O)C(=O)N[C@@H](Cc3cccnc3)C(=O)N[C@@H](C(C)C)C(=O)N[C@@H](CCC(=O)O)C(=O)N2)C(N)=O)C(N)=O)NC(=O)[C@H](CCC(=O)O)NC1=O [compound 57] (I: {CH2CO}-FEPY[3Pal]WPTYSE[3Pal]VECGK-NH2 / II: {CH2CO}-FEPY[3Pal]WPTYSE[3Pal]VECGK-NH2; linker I:17-II:17 via X1; thioether I:N-I:15, II:N-II:15) | 99 | A (The peptide with 50% or more activity when 1 nM of the peptide was added was evaluated as A) | A (The peptide with 50% or more activity when 1 nM of the peptide was added was evaluated as A) |
| < 1e-05 | 0.421 | 102 | {CH2CO}-FSPY[3Pal]WPTYSE[3Pal]VECG (thioether N-15; also: homodimer via linker No. 7 (K-cPEG13c-K) at Gly16) [peptide complex, dimer structure No. 48 (peptide sequence No. 15 + linker structure No. 7)] | – | – | – |
| < 1e-05 | 0.358 | 93 | {CH2CO}-FEPY[3Pal]WPTYSE[3Pal]VECG (thioether N-15; also: homodimer via linker No. 7 (K-cPEG13c-K) at Gly16) [peptide complex, dimer structure No. 56 (peptide sequence No. 17 + linker structure No. 7)] | – | – | – |
